Assay results taken from publication PMC6747087, “Characterization of Tachyplesin Peptides and Their Cyclized Analogues to Improve Antimicrobial and Anticancer Properties” (International Journal of Molecular Sciences, 2019).
Values after ≈ are worked out from the molar mass of the structure shown. Residues, ends and D or L forms follow the SMILES beside them.

Tests used:
[1] = system: human red blood cells (RBCs); assay: Hemolytic activity against human red blood cells; format: cell-based; conditions: human RBCs 0.25% (v/v), 1 h, 37 °C; mean ± SEM
Method: (§1) A small amount of blood was collected from three healthy human donors. The blood was immediately diluted in PBS and centrifuged 4–5 times for 1 min at 4000 rpm to wash and separate the human red blood cells (RBCs). RBCs suspension (0.25% (v/v) in PBS) was incubated with peptides with two-fold serial dilutions of the peptide (highest concentration tested was 128 µM, and the lowest was 0.25 µM) in a 96-well plate. Melittin, a membrane disruptive peptide, was used as control. The plates were incubated for 1 h at 37 °C. After incubation, the plates were centrifuged for 5 min at 1000 rpm to pellet any non-lysed RBCs. A total of 100 µL of the supernatant were transferred to a new 96-well plate. The hemoglobin released into the supernatant from lysed cells was measured by absorbance at 415 nm using the Tecan infinite M1000Pro multiplate reader (Männedorf, Switzerland).

[2] = system: E. coli ATCC 25922; assay: MIC against planktonic bacteria (resazurin); format: cell-based, Escherichia coli; conditions: Mueller Hinton Broth
Method: (§2) S. aureus ATCC 25923, S. aureus ATCC 6538, E. coli ATCC 25922, and E. coli DC2 CGSC 7139 were grown in Mueller Hinton Broth (Sigma Aldrich, St. Luis, USA). Bacterial cultures in the exponential growth phase were diluted to an OD600nm of 0.001 and seeded into 96-well plates. Peptides at different concentrations, starting at 64 µM and with two-fold serial dilutions (i.e., 64, 32, 16, 8, 4, 2, 1, 0.5, 0.25, 0.125 and 0.0625 µM), were incubated with cells; 0.05% (v/v) resazurin was added to the cultures the next day and the conversion to resorufin was measured after 1 h of incubation at 37 °C using a 565 nm excitation and 584 nm emission wavelength, as above.

[3] = system: E. coli DC2 CGSC 7139; assay: MIC against planktonic bacteria (resazurin); format: cell-based, Escherichia coli; conditions: Mueller Hinton Broth
Method: as §2

[4] = system: S. aureus ATCC 25923; assay: MIC against planktonic bacteria (resazurin); format: cell-based, Staphylococcus aureus; conditions: Mueller Hinton Broth
Method: as §2

[5] = system: S. aureus ATCC 6538; assay: MIC against planktonic bacteria (resazurin); format: cell-based, Staphylococcus aureus; conditions: Mueller Hinton Broth
Method: as §2

[6] = Activity against preformed biofilm (resazurin metabolic activity); format: cell-based, Staphylococcus aureus; conditions: 24 h preformed biofilm, 4 h peptide treatment; read-out: CC50 (reduction of 50% of the metabolically active cell population)
Method: S. aureus ATCC 6538 (1 × 10^6 cfu/mL) was cultured in Tryptic Soy Broth, containing 0.25% (w/v) glucose and incubated in 96-well microtiter flat-bottomed polystyrene plates for 24 h at 37 °C. Preformed biofilms were then washed with Mueller Hinton Broth to remove non-adherent cells. Two-fold serial dilutions of each peptide (highest concentration tested was 32 µM and lowest was 0.25 µM) were added to the biofilms for 4 h. Untreated 24 h preformed biofilms were used as a control. The metabolic activity of biofilm-embedded cells was determined using a resazurin reduction fluorometric assay as previously described.

[7] = Cytotoxicity assay (resazurin); format: cell-based, Human; conditions: ± SEM, n ≥ 3
Method: Cells were grown in cell culture flasks and incubated in a humidified atmosphere (5% CO2, 37 °C). The cancer cell lines HeLa and the control cell line HaCaT were grown in a DMEM medium supplemented with 1% (v/v) penicillin/streptomycin and 10% (v/v) fetal bovine serum (FBS). The cancer cell lines MM96L, HT144 and WM164 were grown in a RPMI medium supplemented with 1% (v/v) penicillin/[…], 10% (v/v) FBS, 20 mM L-glutamine, and 10 mM sodium pyruvate. Cell cultures were maintained by dilution upon reaching confluence, each 48–72 h. More information about the cell lines is available in Tables S2 and S3.
Cells were seeded into 96-well flat-bottom plates at 5 × 10^3 cells/well and incubated overnight. The medium was removed and replaced with 90 µL serum-free medium, 10 µL of 10x concentrated peptide solutions in PBS were added. PBS was added as blank and 0.1% (v/v) Triton X-100 was used to establish 100% of cell death. After 2 h incubation at 37 °C, 10 µL of filtered 0.05% (w/v) resazurin solution was added to each well [70]. Resazurin is converted to the pink and fluorescent compound resorufin by viable cells. After incubation overnight, the fluorescence intensity (λex = 565 nm and λem = 584 nm) was measured with the Tecan infinite M1000Pro multiplate reader (Männedorf, Switzerland).

[8] = Hemolytic activity against human red blood cells; format: cell-based; conditions: at 64 µM peptide, human RBCs; read-out: RBCs lysed (hemolysis)
Method: as §1

[9] = in vitro; conditions: 25% (v/v) human serum, 24 h, 37 °C, 50 µM peptide, RP-HPLC peak area vs time zero
Method: The serum stability assay was carried out as previously described with some modifications. Briefly, tachyplesin variants were incubated in 25% (v/v) human serum diluted in phosphate-buffered saline (PBS) at a final concentration of 50 µM at 37 °C. Triplicates were collected at time 0 h and 24 h and the serum proteins were precipitated with acetonitrile (1:3 ratio) supplemented with 3% TFA. Samples were kept on ice for 10 min before centrifugation at 17,000× g for 10 min at 4 °C. The peptide containing supernatant of each sample was harvested and quantified using RP-HPLC (10 to 45% solvent B, 1%/min gradient). The percentage of peptide stability in human serum was calculated by comparing the area of the peptide peak obtained at 24 h to that at time 0 h. A linear peptide containing 18 amino acid residues ([…]) was included as a control susceptible to proteolytic degradation.

[10] = HT144, 2 h peptide in serum-free medium
[11] = HaCaT non-cancerous control, 2 h peptide in serum-free medium
[12] = HeLa, 2 h peptide in serum-free medium
[13] = MM96L, 2 h peptide in serum-free medium
[14] = WM164, 2 h peptide in serum-free medium

SMILES	HC50 (concentration required to induce 50% lysis in RBCs) [1] [µM]	MIC [2] [µM]	MIC [3] [µM]	MIC [4] [µM]	MIC [5] [µM]	Concentration reducing biofilm metabolic activity by 50% [6] [µM]	CC50 [7, 10] [µM]	CC50 [7, 11] [µM]	CC50 [7, 12] [µM]	CC50 [7, 13] [µM]	CC50 [7, 14] [µM]	hemolysis [8] [%]	peptide remaining in human serum [9]
CC[C@H](C)[C@@H]1NC(=O)CNC(=O)[C@H](CCCNC(=N)N)NC(=O)[C@H](Cc2ccc(O)cc2)NC(=O)[C@@H]2CSSC[C@H](NC1=O)C(=O)N[C@@H](Cc1ccc(O)cc1)C(=O)N[C@@H](CCCNC(=N)N)C(=O)N[C@@H](CCCCN)C(=O)N[C@H]1CSSC[C@H](NC(=O)[C@H](Cc3c[nH]c4ccccc34)NC(=O)[C@H](CCCNC(=N)N)NC(=O)CNC(=O)[C@H](CCCNC(=N)N)NC1=O)C(=O)N[C@@H](Cc1ccccc1)C(=O)N[C@@H](CCCNC(=N)N)C(=O)N[C@@H](C(C)C)C(=O)N2 [cTII, Cyclic Tachyplesin II] (HELM PEPTIDE1{C.F.R.V.C.Y.R.G.I.C.Y.R.K.C.R.G.R.W}$PEPTIDE1,PEPTIDE1,1:R3-14:R3|PEPTIDE1,PEPTIDE1,5:R3-10:R3|PEPTIDE1,PEPTIDE1,1:R1-18:R2$$$V2.0)	64.1 ± 9.4	1 to 2	4 to 8	2 to 8	8 (≈ 18.4 µg/mL)	19.4 ± 1.5	0.8 ± 0.04	2.4 ± 0.3	7.2 ± 0.4	1.1 ± 0.1	2.4 ± 0.3		
CC[C@H](C)[C@@H]1NC(=O)CNC(=O)[C@H](CCCNC(=N)N)NC(=O)[C@H](Cc2ccc(O)cc2)NC(=O)[C@@H]2CSSC[C@H](NC1=O)C(=O)N[C@@H](Cc1ccc(O)cc1)C(=O)N[C@@H](CCCNC(=N)N)C(=O)N[C@@H](CCCCN)C(=O)N[C@H](C(=O)N[C@@H](CCCNC(=N)N)C(N)=O)CSSC[C@H](NC(=O)[C@H](Cc1c[nH]c3ccccc13)NC(=O)[C@@H](N)CCCNC(=N)N)C(=O)N[C@@H](Cc1ccccc1)C(=O)N[C@@H](CCCNC(=N)N)C(=O)N[C@@H](C(C)C)C(=O)N2 [TII, Tachyplesin II] (HELM PEPTIDE1{R.W.C.F.R.V.C.Y.R.G.I.C.Y.R.K.C.R.[am]}$PEPTIDE1,PEPTIDE1,3:R3-16:R3|PEPTIDE1,PEPTIDE1,7:R3-12:R3$$$V2.0)	55.4 ± 6.6	0.125 to 0.5	0.5 to 1	1 to 4	4 to 8	23.1 ± 2.9	2 ± 0.1	3.7 ± 0.2	18 ± 3.9	1.6 ± 0.1	1.6 ± 0.1	56	
CC[C@H](C)[C@H](NC(=O)[C@H](CC(C)C)NC(=O)[C@H](CCC(N)=O)NC(=O)CNC(=O)[C@H](CO)NC(=O)CNC(=O)CNC(=O)CNC(=O)CNC(=O)[C@@H](N)CCCCN)C(=O)N[C@@H](CC(=O)O)C(=O)N[C@@H](CO)C(=O)N[C@@H](CCSC)C(=O)N[C@@H](C)C(=O)N[C@@H](CC(N)=O)C(=O)N[C@@H](CO)C(=O)N[C@@H](Cc1ccccc1)C(=O)N[C@H](C(=O)O)C(C)C [KGGGGSGQLIDSMANSFV, reference compound] (H-KGGGGSGQLIDSMANSFV-OH)													fully degraded
CC[C@H](C)[C@@H]1NC(=O)CNC(=O)[C@H](CCCNC(=N)N)NC(=O)[C@H](Cc2ccc(O)cc2)NC(=O)[C@@H]2CSSC[C@H](NC1=O)C(=O)N[C@@H](Cc1ccc(O)cc1)C(=O)N[C@@H](CCCNC(=N)N)C(=O)N[C@@H](CCCCN)C(=O)N[C@H]1CSSC[C@H](NC(=O)[C@H](Cc3c[nH]c4ccccc34)NC(=O)[C@H](CCCCN)NC(=O)CNC(=O)[C@H](CCCNC(=N)N)NC1=O)C(=O)N[C@@H](Cc1ccccc1)C(=O)N[C@@H](CCCNC(=N)N)C(=O)N[C@@H](C(C)C)C(=O)N2 [cTIII, Cyclic Tachyplesin III] (HELM PEPTIDE1{C.F.R.V.C.Y.R.G.I.C.Y.R.K.C.R.G.K.W}$PEPTIDE1,PEPTIDE1,1:R3-14:R3|PEPTIDE1,PEPTIDE1,5:R3-10:R3|PEPTIDE1,PEPTIDE1,1:R1-18:R2$$$V2.0)	>128	1 to 2	4 to 8	2 to 8	8 (≈ 18.2 µg/mL)	18 ± 1.4	0.9 ± 0.03	7.5 ± 0.3	9.3 ± 0.4	1.7 ± 0.1	1.3 ± 0.1		
CC[C@H](C)[C@@H]1NC(=O)CNC(=O)[C@H](CCCNC(=N)N)NC(=O)[C@H](Cc2ccc(O)cc2)NC(=O)[C@@H]2CSSC[C@H](NC1=O)C(=O)N[C@@H](Cc1ccc(O)cc1)C(=O)N[C@@H](CCCNC(=N)N)C(=O)N[C@@H](CCCNC(=N)N)C(=O)N[C@H]1CSSC[C@H](NC(=O)[C@H](Cc3c[nH]c4ccccc34)NC(=O)[C@H](CCCCN)NC(=O)CNC(=O)[C@H](CCCNC(=N)N)NC1=O)C(=O)N[C@@H](Cc1ccccc1)C(=O)N[C@@H](CCCNC(=N)N)C(=O)N[C@@H](C(C)C)C(=O)N2 [cTI, Cyclic Tachyplesin I] (HELM PEPTIDE1{C.F.R.V.C.Y.R.G.I.C.Y.R.R.C.R.G.K.W}$PEPTIDE1,PEPTIDE1,1:R3-14:R3|PEPTIDE1,PEPTIDE1,5:R3-10:R3|PEPTIDE1,PEPTIDE1,1:R1-18:R2$$$V2.0)	106.9 ± 21.0	1 (≈ 2.3 µg/mL)	4 (≈ 9.22 µg/mL)	2 to 8	8 (≈ 18.4 µg/mL)	17.8 ± 3.6	1.4 ± 0.1	7.9 ± 0.5	6.7 ± 0.6	1.3 ± 0.1	2.7 ± 0.1		did not degrade
